Laboratory results reported in patent publication US9493436B2, “Tyrosine phosphatase inhibitors and uses thereof to modulate the activity of enzymes involved in the pathology of Mycobacterium tuberculosis” (priority 2011, dated 2016).

Assays:
CD45 = target: T1, CD45 (Homo sapiens, UniProt P08575); assay: biochemical; assay type: biochemical
T1 sequence (P08575 26-1306): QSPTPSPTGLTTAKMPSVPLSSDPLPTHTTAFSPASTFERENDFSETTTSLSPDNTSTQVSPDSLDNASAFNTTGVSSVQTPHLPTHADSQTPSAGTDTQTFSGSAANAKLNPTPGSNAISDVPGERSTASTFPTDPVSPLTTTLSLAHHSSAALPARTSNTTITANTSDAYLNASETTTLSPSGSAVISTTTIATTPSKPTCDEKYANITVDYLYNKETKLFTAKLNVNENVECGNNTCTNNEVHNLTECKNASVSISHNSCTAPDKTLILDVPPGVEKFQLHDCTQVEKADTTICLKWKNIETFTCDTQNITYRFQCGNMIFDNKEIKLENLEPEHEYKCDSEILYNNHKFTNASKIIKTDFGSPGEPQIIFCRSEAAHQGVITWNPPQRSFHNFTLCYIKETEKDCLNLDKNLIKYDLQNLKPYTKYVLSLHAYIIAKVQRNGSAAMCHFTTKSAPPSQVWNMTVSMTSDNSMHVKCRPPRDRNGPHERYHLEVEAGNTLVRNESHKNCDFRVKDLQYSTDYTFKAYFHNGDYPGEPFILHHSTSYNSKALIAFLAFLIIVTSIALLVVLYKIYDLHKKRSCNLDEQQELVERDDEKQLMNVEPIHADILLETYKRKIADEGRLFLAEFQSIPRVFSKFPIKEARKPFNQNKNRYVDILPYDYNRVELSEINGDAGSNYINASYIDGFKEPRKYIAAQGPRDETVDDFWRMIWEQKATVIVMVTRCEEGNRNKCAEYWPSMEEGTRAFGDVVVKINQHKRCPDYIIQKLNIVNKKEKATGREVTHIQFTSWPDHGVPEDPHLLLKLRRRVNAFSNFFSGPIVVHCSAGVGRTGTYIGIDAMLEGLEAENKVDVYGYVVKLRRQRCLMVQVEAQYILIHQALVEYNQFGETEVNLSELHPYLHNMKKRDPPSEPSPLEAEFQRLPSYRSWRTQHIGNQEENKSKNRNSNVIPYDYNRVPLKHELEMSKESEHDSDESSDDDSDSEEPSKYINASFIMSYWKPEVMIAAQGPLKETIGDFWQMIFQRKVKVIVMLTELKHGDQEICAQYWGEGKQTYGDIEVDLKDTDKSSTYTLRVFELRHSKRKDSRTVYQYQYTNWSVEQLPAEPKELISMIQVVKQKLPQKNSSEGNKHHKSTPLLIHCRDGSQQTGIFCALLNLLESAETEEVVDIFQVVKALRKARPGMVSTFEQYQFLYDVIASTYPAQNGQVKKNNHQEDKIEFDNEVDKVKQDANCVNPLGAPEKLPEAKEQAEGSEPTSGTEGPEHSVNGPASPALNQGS

Lyp = target: T2, Lyp (Homo sapiens, UniProt Q9Y2R2); assay: biochemical; assay type: biochemical
T2 sequence (Q9Y2R2 1-807): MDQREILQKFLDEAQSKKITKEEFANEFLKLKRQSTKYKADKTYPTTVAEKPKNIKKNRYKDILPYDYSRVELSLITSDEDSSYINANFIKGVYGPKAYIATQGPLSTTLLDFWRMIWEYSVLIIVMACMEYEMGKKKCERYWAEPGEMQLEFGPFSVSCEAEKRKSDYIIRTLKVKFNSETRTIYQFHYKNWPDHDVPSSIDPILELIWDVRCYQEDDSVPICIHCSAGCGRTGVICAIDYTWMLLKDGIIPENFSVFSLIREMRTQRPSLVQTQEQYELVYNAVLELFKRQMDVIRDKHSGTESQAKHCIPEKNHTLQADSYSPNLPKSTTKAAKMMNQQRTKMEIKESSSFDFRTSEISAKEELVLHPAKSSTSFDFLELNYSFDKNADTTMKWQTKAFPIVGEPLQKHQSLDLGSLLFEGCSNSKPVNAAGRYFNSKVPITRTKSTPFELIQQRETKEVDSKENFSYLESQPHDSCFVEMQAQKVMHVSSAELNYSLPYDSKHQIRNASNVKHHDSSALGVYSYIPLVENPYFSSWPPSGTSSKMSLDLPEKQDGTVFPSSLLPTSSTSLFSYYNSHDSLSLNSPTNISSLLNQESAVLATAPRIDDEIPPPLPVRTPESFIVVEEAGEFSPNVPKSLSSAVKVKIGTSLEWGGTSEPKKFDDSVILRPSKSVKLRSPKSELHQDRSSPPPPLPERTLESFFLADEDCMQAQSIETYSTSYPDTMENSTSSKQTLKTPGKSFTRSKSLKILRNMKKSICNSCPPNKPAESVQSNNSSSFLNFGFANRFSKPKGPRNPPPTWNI

PTP1B = target: T3, PTP1B (Homo sapiens, UniProt P18031); assay: biochemical; assay type: biochemical
T3 sequence (P18031 1-435): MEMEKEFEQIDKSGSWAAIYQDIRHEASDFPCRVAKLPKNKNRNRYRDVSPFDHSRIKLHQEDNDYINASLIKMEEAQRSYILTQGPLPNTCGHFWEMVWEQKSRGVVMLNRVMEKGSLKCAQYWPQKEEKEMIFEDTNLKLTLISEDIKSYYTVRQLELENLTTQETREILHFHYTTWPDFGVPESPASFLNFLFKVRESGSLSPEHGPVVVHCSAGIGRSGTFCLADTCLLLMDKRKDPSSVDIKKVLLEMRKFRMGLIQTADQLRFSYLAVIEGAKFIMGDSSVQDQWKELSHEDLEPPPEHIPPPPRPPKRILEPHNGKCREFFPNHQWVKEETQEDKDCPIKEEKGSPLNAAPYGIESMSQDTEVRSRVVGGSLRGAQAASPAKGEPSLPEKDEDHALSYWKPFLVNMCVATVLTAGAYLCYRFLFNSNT

SHP1-D1C = SHP1-D1C (Homo sapiens, UniProt P29350); assay: biochemical
FAP1 = FAP1 (Homo sapiens, UniProt Q12923); assay: biochemical; assay type: biochemical
VHX = target: T4, VHX (Homo sapiens, UniProt Q9NRW4); assay: biochemical; assay type: biochemical
T4 sequence (Q9NRW4 1-184): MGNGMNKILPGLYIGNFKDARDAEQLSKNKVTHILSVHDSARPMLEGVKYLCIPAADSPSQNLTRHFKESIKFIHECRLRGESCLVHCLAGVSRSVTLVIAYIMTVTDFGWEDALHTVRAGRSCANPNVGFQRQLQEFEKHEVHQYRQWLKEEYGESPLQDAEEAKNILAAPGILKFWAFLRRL

LMWPTP = LMWPTP (Homo sapiens, UniProt P24666); assay: PTP selectivity panel: LMWPTP; assay type: biochemical
Laforin = Laforin (Homo sapiens, UniProt O95278); assay type: biochemical
SHP1 = SHP1 (Homo sapiens, UniProt P29350); assay type: biochemical
Chain of SHP1 (P29350 whole entry): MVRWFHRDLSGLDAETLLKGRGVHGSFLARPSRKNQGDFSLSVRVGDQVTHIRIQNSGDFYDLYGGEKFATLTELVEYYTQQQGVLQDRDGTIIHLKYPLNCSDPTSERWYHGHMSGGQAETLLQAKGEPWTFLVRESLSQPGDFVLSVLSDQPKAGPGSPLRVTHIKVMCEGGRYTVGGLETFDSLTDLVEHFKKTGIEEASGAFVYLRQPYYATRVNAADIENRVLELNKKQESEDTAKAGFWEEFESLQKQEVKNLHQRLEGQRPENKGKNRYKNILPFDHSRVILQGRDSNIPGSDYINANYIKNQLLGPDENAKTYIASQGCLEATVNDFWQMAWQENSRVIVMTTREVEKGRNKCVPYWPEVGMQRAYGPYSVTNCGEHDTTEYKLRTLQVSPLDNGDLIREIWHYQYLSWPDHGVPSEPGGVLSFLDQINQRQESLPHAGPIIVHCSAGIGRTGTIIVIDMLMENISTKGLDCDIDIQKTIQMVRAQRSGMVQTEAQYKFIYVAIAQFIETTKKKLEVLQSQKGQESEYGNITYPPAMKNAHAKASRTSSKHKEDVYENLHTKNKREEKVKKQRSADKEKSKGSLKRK

Chain of FAP1 (Q12923 whole entry, species assumed): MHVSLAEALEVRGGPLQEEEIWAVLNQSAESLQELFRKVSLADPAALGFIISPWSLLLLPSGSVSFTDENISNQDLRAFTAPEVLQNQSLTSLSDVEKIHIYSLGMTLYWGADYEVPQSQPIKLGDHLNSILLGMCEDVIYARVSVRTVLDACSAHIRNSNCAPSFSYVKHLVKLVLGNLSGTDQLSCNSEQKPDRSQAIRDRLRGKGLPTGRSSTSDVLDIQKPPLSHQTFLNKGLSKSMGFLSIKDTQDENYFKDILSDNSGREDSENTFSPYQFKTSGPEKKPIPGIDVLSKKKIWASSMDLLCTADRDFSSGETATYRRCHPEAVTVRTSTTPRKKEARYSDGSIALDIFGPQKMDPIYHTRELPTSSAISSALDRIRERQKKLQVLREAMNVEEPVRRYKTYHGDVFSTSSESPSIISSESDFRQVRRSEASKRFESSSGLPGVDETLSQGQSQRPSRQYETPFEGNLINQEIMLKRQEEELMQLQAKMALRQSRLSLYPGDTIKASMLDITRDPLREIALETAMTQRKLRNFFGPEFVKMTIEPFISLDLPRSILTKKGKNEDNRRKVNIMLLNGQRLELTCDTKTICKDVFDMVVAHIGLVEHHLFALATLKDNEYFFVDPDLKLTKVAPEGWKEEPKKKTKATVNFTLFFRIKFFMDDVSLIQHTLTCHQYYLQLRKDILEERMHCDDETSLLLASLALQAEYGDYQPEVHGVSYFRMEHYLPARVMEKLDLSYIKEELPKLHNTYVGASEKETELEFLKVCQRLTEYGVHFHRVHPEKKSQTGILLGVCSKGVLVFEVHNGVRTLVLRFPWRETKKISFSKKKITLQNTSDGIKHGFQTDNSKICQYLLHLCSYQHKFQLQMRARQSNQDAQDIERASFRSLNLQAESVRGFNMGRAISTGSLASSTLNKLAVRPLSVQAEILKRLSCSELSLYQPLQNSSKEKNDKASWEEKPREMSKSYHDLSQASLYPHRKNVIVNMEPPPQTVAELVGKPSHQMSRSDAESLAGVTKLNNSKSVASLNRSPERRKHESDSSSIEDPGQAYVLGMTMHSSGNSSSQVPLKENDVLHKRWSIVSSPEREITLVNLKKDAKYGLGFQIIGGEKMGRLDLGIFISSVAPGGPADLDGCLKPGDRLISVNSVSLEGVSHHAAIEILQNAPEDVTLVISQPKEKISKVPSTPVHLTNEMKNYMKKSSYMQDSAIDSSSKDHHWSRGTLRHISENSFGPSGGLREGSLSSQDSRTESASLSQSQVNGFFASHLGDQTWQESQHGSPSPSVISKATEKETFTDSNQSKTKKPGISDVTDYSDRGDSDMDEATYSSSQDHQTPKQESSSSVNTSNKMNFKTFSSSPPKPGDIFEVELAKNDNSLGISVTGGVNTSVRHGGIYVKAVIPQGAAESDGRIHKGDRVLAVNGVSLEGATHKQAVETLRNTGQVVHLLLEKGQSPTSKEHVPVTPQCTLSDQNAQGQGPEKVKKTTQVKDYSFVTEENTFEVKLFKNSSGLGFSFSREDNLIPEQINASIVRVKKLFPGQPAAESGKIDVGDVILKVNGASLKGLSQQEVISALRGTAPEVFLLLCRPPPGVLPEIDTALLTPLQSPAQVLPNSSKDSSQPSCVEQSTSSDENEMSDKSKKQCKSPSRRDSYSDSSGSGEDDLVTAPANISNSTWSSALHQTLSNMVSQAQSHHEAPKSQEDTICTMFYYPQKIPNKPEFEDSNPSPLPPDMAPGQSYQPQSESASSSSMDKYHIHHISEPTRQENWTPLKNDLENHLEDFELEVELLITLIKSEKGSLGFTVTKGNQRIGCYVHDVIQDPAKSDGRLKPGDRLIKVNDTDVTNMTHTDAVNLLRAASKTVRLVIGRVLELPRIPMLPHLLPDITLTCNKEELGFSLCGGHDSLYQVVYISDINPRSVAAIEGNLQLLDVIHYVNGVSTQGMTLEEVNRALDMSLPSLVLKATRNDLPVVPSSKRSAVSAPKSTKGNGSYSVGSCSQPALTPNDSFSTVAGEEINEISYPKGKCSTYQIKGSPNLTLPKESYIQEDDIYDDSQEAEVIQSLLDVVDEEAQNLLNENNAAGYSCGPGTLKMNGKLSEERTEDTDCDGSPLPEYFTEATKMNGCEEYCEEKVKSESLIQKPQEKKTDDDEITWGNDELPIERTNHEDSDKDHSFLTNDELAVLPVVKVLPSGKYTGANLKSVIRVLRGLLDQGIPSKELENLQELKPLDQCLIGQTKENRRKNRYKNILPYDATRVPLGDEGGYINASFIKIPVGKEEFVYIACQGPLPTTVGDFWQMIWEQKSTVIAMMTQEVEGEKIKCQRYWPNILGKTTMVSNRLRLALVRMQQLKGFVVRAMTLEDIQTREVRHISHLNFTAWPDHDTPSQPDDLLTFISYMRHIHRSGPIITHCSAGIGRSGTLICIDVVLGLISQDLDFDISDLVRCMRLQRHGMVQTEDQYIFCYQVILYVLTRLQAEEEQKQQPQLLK
Chain of Laforin (O95278 whole entry, species assumed): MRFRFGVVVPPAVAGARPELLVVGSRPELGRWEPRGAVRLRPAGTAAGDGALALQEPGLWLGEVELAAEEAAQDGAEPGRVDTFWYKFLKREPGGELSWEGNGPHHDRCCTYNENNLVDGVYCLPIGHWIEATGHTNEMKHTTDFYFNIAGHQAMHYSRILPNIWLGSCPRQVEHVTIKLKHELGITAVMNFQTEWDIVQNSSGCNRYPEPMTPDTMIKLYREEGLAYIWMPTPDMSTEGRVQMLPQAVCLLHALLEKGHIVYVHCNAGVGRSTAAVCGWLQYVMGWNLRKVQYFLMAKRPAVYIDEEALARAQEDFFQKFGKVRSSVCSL
Chain of SHP1-D1C (P29350 244-528 limits assumed): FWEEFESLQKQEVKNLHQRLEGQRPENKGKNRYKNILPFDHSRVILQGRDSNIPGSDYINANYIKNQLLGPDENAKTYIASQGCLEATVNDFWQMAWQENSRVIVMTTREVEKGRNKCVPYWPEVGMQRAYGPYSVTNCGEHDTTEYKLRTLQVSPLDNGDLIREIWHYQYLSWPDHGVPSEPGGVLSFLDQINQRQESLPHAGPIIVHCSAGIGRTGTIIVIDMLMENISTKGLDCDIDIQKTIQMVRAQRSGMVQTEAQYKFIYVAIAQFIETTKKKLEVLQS
Chain of LMWPTP (P24666 whole entry, species assumed): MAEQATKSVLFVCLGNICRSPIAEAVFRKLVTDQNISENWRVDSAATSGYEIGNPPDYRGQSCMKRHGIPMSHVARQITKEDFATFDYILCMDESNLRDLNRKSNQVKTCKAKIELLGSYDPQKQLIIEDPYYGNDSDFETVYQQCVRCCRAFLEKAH

Cn1c(-c2ccccc2C(F)(F)F)c(I)c2cc(C(=O)O)c(O)cc21 [Compound 207a, 6-hydroxy-3-iodo-1-methyl-2-(2-(trifluoromethyl)phenyl)-1H-indole-5-carboxylic acid]
IC50 (CD45): 227 ± 4 µM | IC50 (Lyp): 75 ± 4 µM | IC50 (PTP1B): 700 ± 100 µM | IC50 (SHP1-D1C): 86.8 ± 0.4 µM | IC50 (FAP1): 84 ± 1 µM | IC50 (VHX): 56 ± 1 µM

O=C(O)c1cc2c(C#Cc3cccc(C(F)(F)F)c3)c(-c3ccccc3)oc2cc1O [32 (L01Z08)]
IC50 (LMWPTP): 4.3 ± 0.6 µM | IC50 (Laforin): 40 ± 10 µM | IC50 (CD45): 4.2 ± 0.5 µM | IC50 (PTP1B): 6.7 ± 0.7 µM | IC50 (FAP1): 1.3 ± 0.2 µM | IC50 (VHX): 1.4 ± 0.2 µM | IC50 (SHP1): 2.3 ± 0.3 µM
